Data on 4 compounds can be found in patent publication US20090156509A1, “Tri-peptide Inhibitors of Serine Elastases” (Accuthera, Inc., priority 2007, published 2009).

The term pKi denotes the Ki on a negative log10 scale, so that one unit is a factor of ten. The solubility is the concentration that dissolves in the medium under given conditions. A higher solubility goes with much dissolved substance.

pKi: −log10 of the molar value. Values after ≈ are worked out from the molar mass of the structure shown. Where only a bound is given, the exact number is not on record here.

A short description of data set [1]: Plasma stability in dog plasma. The class given is in vitro ADME. The note with it: 37° C., 2 hours, read-out: Plasma Stability (t1/2). The method, then:
Plasma stability of test compounds was accessed by incubating with dog plasma (37° C. at 1 μM) for 2 hours. Aliquots were taken at pre-defined times and the disappearance of parent compound was monitored by LC-MS.

In data set [2] the target is T1, HNE (human neutrophil elastase) (Homo sapiens, UniProt P08246).
T1 construct: Enzymes PR3 and HNE (HLE) were purchased from Athens Research and Technology (Athens, Ga.) or Elastin Products (Owensville, Mich.); purchased Athens Research and Technology (Athens, Ga.) or Elastin Products (Owensville, Mich.)
T1 sequence (P08246 30-267): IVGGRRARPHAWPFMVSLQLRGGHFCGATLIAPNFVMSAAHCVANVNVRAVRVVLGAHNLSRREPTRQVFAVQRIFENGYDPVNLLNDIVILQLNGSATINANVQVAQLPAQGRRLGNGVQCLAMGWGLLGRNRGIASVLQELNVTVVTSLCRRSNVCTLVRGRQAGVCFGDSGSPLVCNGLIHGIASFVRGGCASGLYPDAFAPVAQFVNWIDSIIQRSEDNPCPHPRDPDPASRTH
Description: HNE enzyme inhibition, kinetic Ki determination. The class given is biochemical. The note with it: for pKi: substrate MeO-Suc-Ala-Ala-Pro-Val-pNA, pH 7.6, read-out: Ki (NE). The method, then: (§1) The assays for measurement of PR3 and HNE enzyme and inhibitory activity were performed generally as described by Coeschott et al., Proc. Nat. Acad. Sci. USA, 96: 6261-6266, (1999). Kinetic characterization was performed generally by the techniques of Wieczorek et al., Archives of Biochem. and BioPhys., 367: 193-201 (1999). Enzymes PR3 and HNE (HLE) were purchased from Athens Research and Technology (Athens, Ga.) or Elastin Products (Owensville, Mich.).
(§2) The substrate used for HNE was MeO-Suc-Ala-Ala-Pro-Val-pNA, in 0.05 M sodium phosphate/0.1 M NaCl, pH 7.6, containing 0.001% Triton X-100 and 5% DMSO. The substrate used for PR3 was Boc-Ala-Pro-Nva-4-chloro-SBzl in 0.05 M potassium phosphate/0.1 M KCl, pH 7.6, containing 0.001% Triton X-100, and 10% DMSO. The cleavage of the thiobenzyl ester was detected with 250 μM […] (5′,5′-dithiobis-2-nitrobenzoic acid).
The concentration of active site of HNE was determined by titration with N-benzyloxycarbonyl-Ala-Ala-Pro-azaAla p-nitrophenyl ester or an alternative method. For the alternative method, the concentration of the active center of a HNE solution was first titrated with the above p-nitrophenyl ester, this HNE solution was then used to measure the active center concentration of an eglin c solution. Aliquots of the eglin c solution were stored at −70° C. and employed as a second standard to assay the activity of any newly prepared HNE solutions. No change in the activity of eglin c could be detected over a 3 year time interval as long as the solution was stored at −70° C. An important factor which influences the HNE assay is the method of dissolution of lyophilized enyme: if HNE is obtained in the lyophilized state, the protease solution should be dissolved, aliquoted, and stored at −20° C. for at least 48 hours prior to assay, so that the dried protein can be completely hydrated. Freshly dissolved enzyme which has not been stored for 48 hours may have proteolytic activity which is 10%-20% less that of stored enzyme.
Consequently, it is not always easy to achieve conditions in which the initial concentration of free inhibitor, [I]o, is much larger than the initial concentration of free enzyme, [E]o, i.e. the condition of [I]o≧10 [E]o is not easily fulfilled. […]
can only be employed when the condition of [I]o≧10 [E]o is fulfilled. In those cases in which the condition of [I]o≧10 [E]o is not met, the experimental data is analyzed using the Henderson equations according to the classic procedure (Henderson, P. J. F. Biochem. J. 127: 321, 1972) or with equations derived for slow-binding inhibition (Ying, Q-L. et al, Biochemistry 33: 5445, 1994). […]

For data set [3], the target named is T2, PR3 (human neutrophil proteinase 3) (Homo sapiens, UniProt P24158).
T2 construct: Enzymes PR3 and HNE (HLE) were purchased from Athens Research and Technology (Athens, Ga.) or Elastin Products (Owensville, Mich.); purchased Athens Research and Technology (Athens, Ga.) or Elastin Products (Owensville, Mich.)
T2 sequence (P24158 28-248): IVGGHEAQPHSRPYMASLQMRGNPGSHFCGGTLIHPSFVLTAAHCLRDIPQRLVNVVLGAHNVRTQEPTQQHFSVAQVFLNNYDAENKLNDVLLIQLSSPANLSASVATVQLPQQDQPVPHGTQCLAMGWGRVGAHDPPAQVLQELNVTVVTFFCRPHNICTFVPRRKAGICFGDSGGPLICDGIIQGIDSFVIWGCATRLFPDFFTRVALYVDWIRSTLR
Description: PR3 enzyme inhibition, Ki determination. Type of data set: biochemical. The note with it: substrate Boc-Ala-Pro-Nva-4-chloro-SBzl, pH 7.6. The method, then:
as §1, §2

A short description of data set [4]: Protein binding in dog plasma by equilibrium dialysis. The class given is in vitro ADME. The note with it: 10 μM, 6 hours at 37° C. The method, then:
Protein binding of test compounds in dog plasma was assessed by performing equilibrium dialysis with plasma containing test compound (10 μM) against 0.1 M PBS (pH 7.4). Following incubation (6 hours at 37° C.), the parent compound was measured in both plasma and buffer compartments by LC-MS and the percentage of compound bound to plasma proteins determined. […] Generally it is believed that only the unbound drug is available for pharmacological action.
On the technique in general: In equilibrium dialysis free small molecules cross a membrane that holds back macromolecules.

Data set [5] in a line: Solubility in 0.1 M PBS by LC-MS. The note with it: aqueous buffer, kinetic from dmso stock; 0.1 M PBS pH 7.4, 2% DMSO, 2 hours at 37° C. Type of data set: physicochemical. The protocol:
Solubility of test compounds was measured by adding small volumes of DMSO stock solutions (final concentration 2% DMSO) to 0.1 M PBS (pH 7.4) and incubating for 2 hours at 37° C. Subsequently, the samples were filtered and the concentration of test compounds was determined by LC-MS.

Consider `CC(C)[C@H](NC(=O)[C@@H]1CCCN1C(=O)[C@@H](NC(=O)CCCCCNC(=O)c1ccccn1)C(C)C)C(=O)c1nnc(-c2ccccc2)o1` [AI-158], for which, in data set [1], the half-life at 1 μM is over 1.67 h. Further, the pKi in data set [2] was 9.66. The negative logarithm of the Ki (pKi) in data set [3] was 8.08. Besides, in data set [4], the “Plasma Protein Binding (% free)” value was 8.0 % free and the “Protein binding in dog plasma (% bound)” value was found to be 92 % bound. In addition, the concentration in solution in data set [5] (solubility at 2 h) was 69 µM (≈ 45.5 µg/mL).

Consider `CC(C)[C@H](NC(=O)CCCCCNC(=O)c1ccccn1)C(=O)N1CCC[C@H]1C(=O)N[C@H](C(=O)C(F)(F)F)C(C)C` [AI-167], for which the half-life at 1 μM in data set [1] was over 1.67 h. Further, in data set [4], the “Plasma Protein Binding (% free)” value came to 19.0 % free and the “Protein binding in dog plasma (% bound)” value turned out to be 81 % bound. Besides, the concentration in solution in data set [5] (solubility at 2 h) came to 164 µM (≈ 95.7 µg/mL).

On to `CC(C)[C@H](NC(=O)[C@@H]1CCCN1C(=O)[C@@H](NC(=O)CCCCCNC(=O)c1ccccn1)C(C)C)C(=O)c1nnc(C(C)(C)C)o1` [AI-168], for which, in data set [1], the half-life at 1 μM was over 1.67 h. In data set [2], the pKi is 9.70. Moreover, the pKi in data set [3] is 8.41. In data set [4], the “Plasma Protein Binding (% free)” value turned out to be 17.0 % free and the “Protein binding in dog plasma (% bound)” value is listed as 83 % bound. The amount in solution in data set [5] (solubility at 2 h) came to 179 µM (≈ 115 µg/mL).

In the case of `Cc1cccc(Cc2nnc(C(=O)[C@@H](NC(=O)[C@@H]3CCCN3C(=O)[C@@H](NC(=O)OCc3ccccc3)C(C)C)C(C)C)o2)c1` [CE-2072, reference compound], the half-life at 1 μM in data set [1] was over 1.67 h. For the same compound, the values for the pKi in data set [2] and in data set [3] were 9.62 and 7.62, respectively. The “Ki for HLE (in words)” value in data set [2] (tight binding inhibitor of HLE) is “subnanomolar range”. Also, the “Plasma Protein Binding (% free)” value in data set [4] came to 1.0 % free. In addition, in data set [5], the solubility at 2 h is under 10 µM.
